Values of other authors as cited in patent publication US5607673A, “Purified extract of uvaria brevistipitata and a process for obtaining the purified extract therefor” (C.S.S.A.H.A., Inc., priority 1995, dated 1997).

Columns and labels:
[1] = test system: NADH-Ubiquinone Reductase (Complex I); conditions: Degli et al. 1994; for Complex I inhibitory constant and protein dependence of titer vs classical inhibitors: bovine submitochondrial particles
[2] = U.S. Pat. No. 5,229,419
[3] = test system: multi-drug resistant K 1 strain of plasmodium falciparum; conditions: in vitro; Nkunya et al. 1991
[4] = test system: P-388 lymphocytic leukemia; conditions: in vitro; Jolad et al. 1982
tumor = conditions: Cole et al. 1976
Colon-38 adenocarcinoma = conditions: Lumonadio et al. 1991
[5] = test system: P-388 mouse lymphocytic leukemia cells; conditions: Lumonadio et al. 1991

CCCCCC[C@H](O)CCC[C@H](O)[C@H]1CC[C@H]([C@H]2CC[C@H]([C@H](O)CCCCCCCCCCCCC3=C[C@H](C)OC3=O)O2)O1 [Squamocin]
Complex I inhibitory constant vs the classical inhibitor [1]: lower than that of the classical inhibitor

CCCCCCCCCC[C@H](O)[C@H]1CC[C@H]([C@H]2CC[C@H]([C@H](O)CCCCCCCCCC[C@@H]3CC(CC(C)=O)C(=O)O3)O2)O1 (stereo partly shown) [bullatacinone]
antitumor and pesticidal activity [2]: exhibit antitumor and pesticidal activity

CCCCCCCCCC[C@H](O)[C@H]1CC[C@H]([C@H]2CC[C@H]([C@H](O)CCCCCCCCCC[C@@H](O)CC3=C[C@H](C)OC3=O)O2)O1 [bullatacin]
antitumor and pesticidal activity [2]: exhibit antitumor and pesticidal activity

CCCCCCCCCC[C@H](O)[C@H]1CC[C@@H]([C@@H]2CC[C@H]([C@H](O)CCCCCCCCCC[C@@H](O)CC3=C[C@H](C)OC3=O)O2)O1 [Rolliniastatin-1]
Complex I inhibitory constant and protein dependence of titer vs classical inhibitors [1]: more powerful

CCCCCCCCCC[C@H](O)[C@H]1CC[C@H]([C@H]2CC[C@H]([C@H](O)CCCCCCCCCCC(O)CC3=C[C@H](C)OC3=O)O2)O1 (stereo partly shown) [Rolliniastatin-2]
Complex I inhibitory constant and protein dependence of titer vs classical inhibitors [1]: more powerful

Otivarin
Complex I inhibitory constant vs the classical inhibitor [1]: lower than that of the classical inhibitor

CC(C)=CC(O)C(O)C(C)=CCCC(C)=CCc1c[nH]c2ccccc12 (stereo not shown) [8',9'-dihydroxy-3-farnesylindole]
anti-malarial activity [3]: most active

CCCCCCCCCC[C@H](OC(C)=O)[C@H]1CC[C@H]([C@H]2CC[C@H]([C@H](O)CCCCCCCCCCCCC3=C[C@H](C)OC3=O)O2)O1 [Uvaricin]
activity against P-388 lymphocytic leukemia [4]: demonstrated an in vitro activity

COc1cc(O)c(Cc2ccccc2O)c(O)c1C(=O)CCc1ccccc1 [Uvaratin]
anti-tumor activity (tumor): shown to have anti-tumor activity

15-desacetylundulatone
activity against Colon-38 adenocarcinoma (Colon-38 adenocarcinoma): active | activity against P-388 cells [5]: active

COc1c(Cc2ccccc2O)c(O)c(Cc2ccccc2O)c(O)c1C(=O)CCc1ccccc1 [Diuveretin]
anti-malarial activity [3]: most active

COc1cc(O)c(Cc2ccccc2O)c(O)c1C(=O)CCc1ccccc1 [Uvaretin]
anti-malarial activity [3]: most active
